Consider nine molecules from US4562068A, “Sebosuppressive cosmetic preparations containing aryloxobutenoic acid derivatives” (Henkel Kommanditgesellschaft auf Aktien, priority 1982, dated 1985).

For the experiment, the system named is brown cutaneous surface lipid of the rats. As to the kind of experiment: Testing for anti-seborrheic activity: brown discoloration (brown cutaneous surface lipid) on shaved backs of male Wistar rats after topical application. The class given is in vivo. Particulars: 9 applications in 14 days; for Evaluation Method 1 (percentage of evaluators recognizing an effect): topical on one side of back fur, 6 male Wistar rats. The source says: The anti-seborrheic activity of aryloxobutenoic acid derivatives was examined closely in the animal experiments described hereinafter. The experimental animals were male Wistar rats weighing from 220 to 230 gm. A degree of brown discoloration on the shaved backs of the rats was established visually; the brown discoloration was caused by the brown cutaneous surface lipid of the rats. This test is based upon the observation that young female rats as well as male rats that were washed with tenside solution and a lipid solvent, respectively, as well as male rats that were treated systematically with estrogen, show only the normal light-colored pink skin after shaving; parallel to this, only relatively very small amounts of lipid can be extracted from the shorn hair.
For evaluation of anti-seborrheic activity, the test substances set forth in the table below, each in solution in ethanol, were each brushed on one side of the back fur of six rats. The other side was treated only with the solvent without the active substance (control side). During the testing period of 14 days, application of test substance was made once a day on a total of 9 days. A group of 6 rats that remained completely untreated served as an additional control. At the end of the testing, the animals were shaved on the back and the flanks and inspected visually, this inspection being done independently by an evaluation panel (6 persons) under doubleblind conditions.
Three criteria were rated. The first criterion was whether the majority of the evaluators recognized the treated side properly. The differentiations were as follows:
The second criterion was the difference between the right and left sides, one point each to be given per evaluator and animal, in the manner that the darker side was rated 1, the lighter side was rated 0, and uniformity of both sides were rated 0.5.
Significant differences between the untreated and the treated side according to the second method of evaluation indicate the topical effectiveness of a substance.
The third criterion was the rating of the difference in intensity of the brown shades according to the following scale:
According to the third method of evaluation, the differences in the point totals between the untreated control animals and the treated and untreated sides, respectively, of the experimental animal group were calculated where significant differences between control animals and the treated side of the experimental animals indicate the effect of a substance. Similarly, a distinct difference between the untreated and the treated sides of the experimental animal groups is also generally noticeable. However, this is not always as distinct as that between control animals and treated sides, which may be due to various reasons, as, for example, mechanical transfer of substance from one side to the other or solvent influence.
The differentiation of the effects according to the methods of evaluation 2 and 3 was characterized in the following manner:
In addition, the percentage of sebum reduction was calculated by dividing the point difference (ΔP) by the number of points for the control group (Pk) and multiplying by 100%, as follows: […]

Setting [1] is: Rattus norvegicus, 336 h, 0.1% in ethanol, topical, point difference (ΔP) / points of control group (Pk) x 100%, read-out: Sebum Reduction.
[2] abbreviates: Rattus norvegicus, 336 h, 0.5% in ethanol, topical, point difference (ΔP) / points of control group (Pk) x 100%, read-out: Sebum Reduction.

Consider `CCOC(=O)C=CC(=O)c1ccc(NC(C)=O)cc1` [Example 9, 4-(4'-Acetylamino-phenyl)-4-oxo-but-2-enoic acid ethyl ester], for which, for the setting “0.1% in ethanol”, the “Evaluation Method 1 (percentage of evaluators recognizing an effect)” value is reported as “++ (100%)”. Further, the inhibition in vivo at 0.1 % under setting [1] is 84%.

On to `CCOC(=O)C=CC(=O)c1ccc(OC)c(OC)c1O` [Example 8, 4-(3',4'-Dimethoxy-2'-hydroxy-phenyl)-4-oxo-but-2-enoic acid ethyl ester], for which the “Evaluation Method 1 (percentage of evaluators recognizing an effect)” value (0.5% in ethanol) is “++ (100%)”. For the same molecule, the inhibition in vivo at 0.5 % under setting [2] amounted to 69%.

On to `CCOC(=O)C=CC(=O)c1ccccc1` [Example 2, 4-Phenyl-4-oxo-but-2-enoic ethyl ester], for which the “Evaluation Method 1 (percentage of evaluators recognizing an effect)” value (0.1% in ethanol) is given as “++ (100%)”.

As to `CC(C)OC(=O)C=CC(=O)c1ccccc1` [Example 3, 4-Phenyl-4-oxo-but-2-enoic isopropyl ester], the “Evaluation Method 1 (percentage of evaluators recognizing an effect)” value (0.1% in ethanol) is “++ (100%)”. In addition, the inhibition in vivo at 0.1 % under setting [1] is 68%.

As to `CCOC(=O)C=CC(=O)c1ccc(OC)c(OC)c1` [Example 5, 4-(3',4'-Dimethoxy-phenyl)-4-oxo-but-2-enoic acid ethyl ester], the “Evaluation Method 1 (percentage of evaluators recognizing an effect)” value (0.1% in ethanol) is listed as “++ (100%)”. The inhibition in vivo at 0.1 % under setting [1] worked out at 65%.

`CCOC(=O)C=CC(=O)c1ccc(Cl)cc1` [Example 1, 4-(4'-Chloro-phenyl)-4-oxo-but-2-enoic acid ethyl ester]: the “Evaluation Method 1 (percentage of evaluators recognizing an effect)” value (0.25% in ethanol) is “++ (100%)”. Also, under “Rattus norvegicus, 336 h, 0.25% in ethanol, topical, point difference (ΔP) / points of control group (Pk) x 100%, read-out: Sebum Reduction”, the inhibition in vivo at 0.25 % stood at 84%.

In the case of `CCCCOc1ccc(C(=O)C=CC(=O)OCC)cc1` [Example 6, 4-(4'-Butoxy-phenyl)-4-oxo-but-2-enoic acid ethyl ester], the “Evaluation Method 1 (percentage of evaluators recognizing an effect)” value (0.5% in ethanol) is reported as “++ (100%)”. In addition, under setting [2], the inhibition in vivo at 0.5 % was found to be 42%.

On to `CCOC(=O)C=CC(=O)c1ccc(Cl)cc1Cl` [Example 10, 4-(2',4'-Dichloro-phenyl)-4-oxo-but-2-enoic acid ethyl ester], for which the “Evaluation Method 1 (percentage of evaluators recognizing an effect)” value (0.1% in ethanol) is given as “++ (100%)”. Besides, under setting [1], the inhibition in vivo at 0.1 % worked out at 27%.

With `CCCCOC(=O)C=CC(=O)c1ccccc1` [Example 4, 4-Phenyl-4-oxo-but-2-enoic acid butyl ester], the “Evaluation Method 1 (percentage of evaluators recognizing an effect)” value (0.1% in ethanol) is on record as “++ (100%)”. Under setting [1], the inhibition in vivo at 0.1 % turned out to be 66%.
